Source: publication PMC4199987 (Drug Design, Development and Therapy, 2014)
Read-outs that look alike come from different tables or passages of the source. Marks after values point to notes of the source that are not given here.

Assays:
[1] = tested on: active GLP-1; experiment: Postprandial plasma active GLP-1 in healthy subjects; format: in vivo, human
[2] = tested on: serum glucose; experiment: Postprandial serum glucose in healthy subjects; format: in vivo, human
[3] = tested on: whole blood insulin; experiment: Postprandial whole blood insulin in healthy subjects; format: in vivo, human
[4] = Safety and tolerability assessment; format: in vivo, human
[5] = tested on: human DPP-VIII; conditions: selectivity; cited from earlier work
[6] = tested on: human DPP-IX; conditions: selectivity; cited from earlier work
[7] = tested on: human DPP-I; conditions: selectivity; cited from earlier work
[8] = tested on: human DPP-II; conditions: selectivity; cited from earlier work
[9] = tested on: fibroblast activation protein-alpha (FAPα); conditions: selectivity; cited from earlier work
[10] = tested on: antiphagocytic protein 1 (APP1); conditions: selectivity; cited from earlier work
[11] = tested on: prolidase; conditions: selectivity; cited from earlier work
[12] = tested on: granzyme B; conditions: selectivity; cited from earlier work
[13] = tested on: cytochrome P450 (CYP) 3A4; conditions: in vitro studies; cited from earlier work
[14] = tested on: CYP1A2; conditions: in vitro studies; cited from earlier work
[15] = tested on: CYP2C9; conditions: in vitro studies; cited from earlier work
[16] = tested on: CYP2C19; conditions: in vitro studies; cited from earlier work
[17] = tested on: CYP2D6; conditions: in vitro studies; cited from earlier work
[18] = tested on: CYP3A4; conditions: in vitro studies; cited from earlier work
[19] = tested on: CYP3A4; conditions: in vitro studies; cited from earlier work; remark: listed apart in the source
[20] = dose range 1.25–60 mg, healthy volunteers; cited from earlier work
[21] = tested on: high fat diet-fed mice; conditions: cited from earlier work
[22] = tested on: db/db mice; conditions: young leptin receptor-deficient db/db mice; cited from earlier work
[23] = tested on: streptozotocin-induced diabetic mice; conditions: cited from earlier work
[24] = cited from earlier work
[25] = baseline corrected, day 1, 5 mg
[26] = baseline corrected, day 1, 10 mg
[27] = baseline corrected, day 1, 20 mg
[28] = baseline corrected, day 10, 5 mg
[29] = baseline corrected, day 10, 10 mg
[30] = baseline corrected, day 10, 20 mg
[31] = baseline uncorrected, day 1, 5 mg
[32] = baseline uncorrected, day 1, 10 mg
[33] = baseline uncorrected, day 1, 20 mg
[34] = baseline uncorrected, day 10, 5 mg
[35] = baseline uncorrected, day 10, 10 mg
[36] = baseline uncorrected, day 10, 20 mg
[37] = 5 mg (N=8), judged to be related to the study drug
[38] = 5 mg once daily for 10 days (N=8)
[39] = 10 mg (N=8), judged to be related to the study drug
[40] = 10 mg once daily for 10 days (N=8)
[41] = 20 mg (N=8), judged to be related to the study drug
[42] = 20 mg once daily for 10 days (N=8)

SMILES: CC(C)(C)OC[C@@H]1C(=O)NCCN1C(=O)C[C@H](N)Cc1cc(F)c(F)cc1F [Evogliptin]
- Average AUEtotal (CV%) GLP-1 [1, 25]: 25.7 (48.3) pM·h
- Average AUEtotal (CV%) GLP-1 [1, 26]: 24.9 (46.0) pM·h
- Average AUEtotal (CV%) GLP-1 [1, 27]: 45.3 (73.8) pM·h
- Average AUEtotal (CV%) GLP-1 [1, 28]: 25.4 (56.7) pM·h
- Average AUEtotal (CV%) GLP-1 [1, 29]: 22.2 (41.0) pM·h
- Average AUEtotal (CV%) GLP-1 [1, 30]: 35.5 (67.3) pM·h
- Average AUEtotal (CV%) GLP-1 [1, 31]: 55.8 (49.6) pM·h
- Average AUEtotal (CV%) GLP-1 [1, 32]: 55.0 (35.9) pM·h
- Average AUEtotal (CV%) GLP-1 [1, 33]: 82.8 (55.3) pM·h
- Average AUEtotal (CV%) GLP-1 [1, 34]: 75.7 (111.2) pM·h
- Average AUEtotal (CV%) GLP-1 [1, 35]: 52.6 (25.0) pM·h
- Average AUEtotal (CV%) GLP-1 [1, 36]: 72.8 (37.0) pM·h
- reduction of baseline corrected AUEtotal of glucose compared to placebo ([2]; 5 mg): 20%
- reduction of baseline corrected AUEtotal of glucose compared to placebo ([2]; 10 mg): 25%
- reduction of baseline corrected AUEtotal of glucose compared to placebo ([2]; 20 mg): 35%
- effect on fasting glucose levels ([2]; 5-20 mg): did not affect the fasting glucose levels
- Average AUEtotal (CV%) Glucose [2, 25]: 264.1 (36.1) h·mg/dL
- Average AUEtotal (CV%) Glucose [2, 26]: 234.9 (24.9) h·mg/dL
- Average AUEtotal (CV%) Glucose [2, 27]: 229.7 (37.6) h·mg/dL
- Average AUEtotal (CV%) Glucose [2, 28]: 259.4 (25.2) h·mg/dL
- Average AUEtotal (CV%) Glucose [2, 29]: 242.8 (41.6) h·mg/dL
- Average AUEtotal (CV%) Glucose [2, 30]: 209.3 (31.0) h·mg/dL
- Average AUEtotal (CV%) Glucose [2, 31]: 741.3 (14.1) h·mg/dL
- Average AUEtotal (CV%) Glucose [2, 32]: 747.3 (6.0) h·mg/dL
- Average AUEtotal (CV%) Glucose [2, 33]: 747.8 (11.9) h·mg/dL
- Average AUEtotal (CV%) Glucose [2, 34]: 759.6 (9.1) h·mg/dL
- Average AUEtotal (CV%) Glucose [2, 35]: 751.4 (12.6) h·mg/dL
- Average AUEtotal (CV%) Glucose [2, 36]: 727.0 (7.2) h·mg/dL
- Average AUEtotal (CV%) Insulin [3, 25]: 238.3 (15.0) h·μIU/mL
- Average AUEtotal (CV%) Insulin [3, 26]: 315.1 (35.7) h·μIU/mL
- Average AUEtotal (CV%) Insulin [3, 27]: 223.3 (50.8) h·μIU/mL
- Average AUEtotal (CV%) Insulin [3, 28]: 270.9 (36.0) h·μIU/mL
- Average AUEtotal (CV%) Insulin [3, 29]: 410.2 (62.6) h·μIU/mL
- Average AUEtotal (CV%) Insulin [3, 30]: 301.3 (28.6) h·μIU/mL
- Average AUEtotal (CV%) Insulin [3, 31]: 274.9 (14.2) h·μIU/mL
- Average AUEtotal (CV%) Insulin [3, 32]: 360.2 (30.6) h·μIU/mL
- Average AUEtotal (CV%) Insulin [3, 33]: 264.7 (44.0) h·μIU/mL
- Average AUEtotal (CV%) Insulin [3, 34]: 311.3 (32.0) h·μIU/mL
- Average AUEtotal (CV%) Insulin [3, 35]: 460.3 (57.2) h·μIU/mL
- Average AUEtotal (CV%) Insulin [3, 36]: 349.5 (24.7) h·μIU/mL
- Cough, number of cases ([4]; 5 mg (N=8)): 1
- Epigastric discomfort, number of cases ([4]; 5 mg (N=8)): 1
- Eyeball pain, number of cases ([4]; 5 mg (N=8)): 1
- Poor-quality sleep, number of cases ([4]; 5 mg (N=8)): 1
- Rhinorrhea, number of cases ([4]; 5 mg (N=8)): 1
- Sweating, number of cases ([4]; 5 mg (N=8)): 1
- Throat irritation, number of cases ([4]; 5 mg (N=8)): 1
- Vasovagal syncope, number of cases ([4]; 5 mg (N=8)): 1
- Fatigue, number of cases [4, 37]: 1 ^a
- Insomnia, number of cases [4, 37]: 1 ^a
- % of subjects with AEs in a group [4, 38]: 50%
- AEs, number of cases [4, 38]: 10
- Musculoskeletal discomfort, number of cases ([4]; 10 mg (N=8)): 1
- Pharyngitis, number of cases ([4]; 10 mg (N=8)): 1
- Epigastric discomfort, number of cases [4, 39]: 1 ^a
- Sweating, number of cases [4, 39]: 1 ^a
- % of subjects with AEs in a group [4, 40]: 50%
- AEs, number of cases [4, 40]: 5
- Joint pain, number of cases ([4]; 20 mg (N=8)): 1
- Prurigo, number of cases ([4]; 20 mg (N=8)): 1
- Headache, number of cases [4, 41]: 1 ^a
- Increased urinary frequency, number of cases [4, 41]: 1 ^a
- % of subjects with AEs in a group [4, 42]: 37.5%
- AEs, number of cases [4, 42]: 4
- Serious AEs ([4]; 5-20 mg once daily for 10 days): No serious AEs were reported
- Severity of AEs ([4]; 5-20 mg once daily for 10 days): all AEs were mild in severity
- AEs, number of cases in subjects administered evogliptin ([4]; all evogliptin dose groups, 5-20 mg for 10 days): 19 cases
- Subjects with AEs among those administered evogliptin ([4]; all evogliptin dose groups, eleven subjects): 45.8%
- Tolerability of repeated administration ([4]; healthy subjects, 5–20 mg dose range): well tolerated
- potency for DPP-IV compared to human DPP-VIII [5]: 6,000 times
- potency for DPP-IV compared to human DPP-IX [6]: 6,000 times
- potency for DPP-IV compared to human DPP-I [7]: more than 20,000 times
- potency for DPP-IV compared to human DPP-II [8]: more than 20,000 times
- potency for DPP-IV compared to FAPα [9]: more than 20,000 times
- potency for DPP-IV compared to APP1 [10]: more than 20,000 times
- potency for DPP-IV compared to prolidase [11]: more than 20,000 times
- potency for DPP-IV compared to granzyme B [12]: more than 20,000 times
- induction of CYP3A4 [13]: not an inducer
- inhibition of CYP1A2 [14]: nor an inhibitor
- inhibition of CYP2C9 [15]: nor an inhibitor
- inhibition of CYP2C19 [16]: nor an inhibitor
- inhibition of CYP2D6 [17]: nor an inhibitor
- inhibition of CYP3A4 [18]: nor an inhibitor
- enzyme mediating metabolism [19]: primarily mediated by CYP3A4
- dose proportionality of PKs after single dose [20]: dose-proportional PKs
- tolerability after single dose [20]: good tolerability
- effect on insulin sensitivity [21]: improved insulin sensitivity
- effect on onset of diabetes [22]: delayed the onset of diabetes
- effect on β-cell replication and neogenesis [23]: increased β-cell replication and neogenesis
- interindividual variability (CV%) of AUCτ,ss (5-20 mg): < 20%
- interindividual variability (CV%) of Cmax,ss (5-20 mg): < 30%
- time to attain steady state (all dosage groups, once daily): ≤ 3 days
- fess (fraction of the administered drug excreted into the urine at the steady state) (day 10, 5 mg once daily, mean ± SD): 0.34±0.08
- fess (fraction of the administered drug excreted into the urine at the steady state) (day 10, 10 mg once daily, mean ± SD): 0.27±0.12
- fess (fraction of the administered drug excreted into the urine at the steady state) (day 10, 20 mg once daily, mean ± SD): 0.27±0.04
- CLss/F (day 10, steady state, 5 mg once daily, mean ± SD): 49.4 ± 9.6 L/h
- CLss/F (day 10, steady state, 10 mg once daily, mean ± SD): 63.4 ± 10.7 L/h
- CLss/F (day 10, steady state, 20 mg once daily, mean ± SD): 54.3 ± 8.6 L/h
- Tmax (human, in vivo): 4 to 5 h
- AUC(0-t) (human, in vivo, 5 mg): 73 ± 15.3 ng·h/mL
- Cmax (human, in vivo, 5 mg, Cmax, day 1, 5 mg, mean ± SD): 4.9 ± 1.8 ng/mL
- Cmax (human, in vivo, 5 mg, Cmax,ss, day 10, steady state, 5 mg once daily, mean ± SD): 6.7 ± 1.9 ng/mL
- half-life (human, in vivo, 5 mg, t1/2,ss, day 10, steady state, 5 mg once daily, mean ± SD): 32.9 ± 6.1 h
- AUC(0-t) (human, in vivo, 10 mg): 118 ± 24.2 ng·h/mL
- Cmax (human, in vivo, 10 mg, Cmax, day 1, 10 mg, mean ± SD): 9.5 ± 2.1 ng/mL
- AUC(0-t) (human, in vivo, 20 mg): 254 ± 44 ng·h/mL
- Cmax (human, in vivo, 20 mg, Cmax, day 1, 20 mg, mean ± SD): 21.7 ± 3.7 ng/mL
- Tmax (human, in vivo, po, 5 mg): 5.1 h
- Tmax (human, in vivo, po, 10 mg): 5 h
- Tmax (human, in vivo, po, 20 mg): 4.5 h
- dose linearity of PKs (within the 5–20 mg dose range, repeated administration): linear PKs

SMILES: CC#CCn1c(N2CCC[C@@H](N)C2)nc2c1c(=O)n(Cc1nc(C)c3ccccc3n1)c(=O)n2C [linagliptin]
- terminal elimination half-life [24]: 120 h
